“Also recorded” adds a separate entry of the source. Residues, ends and D or L forms follow the SMILES beside them.
How the values were obtained:
Recombinant human furin = molecular target: T1, Recombinant human furin (Homo sapiens, UniProt P09958); assay: In vitro fluorogenic furin activity assay; format: biochemical; details: for inhibition of furin activity in the drug screen: fluorogenic substrate BOC-Arg-Val-Arg-Arg-AMC, FIG. 9 / FIG. 22; for fluorescence (furin activity): single drug at 110 and 220 μM, 50-minute time course
T1 construct: purchased New England BioLabs (Ipswich, MA)
T1 sequence (P09958 108-794): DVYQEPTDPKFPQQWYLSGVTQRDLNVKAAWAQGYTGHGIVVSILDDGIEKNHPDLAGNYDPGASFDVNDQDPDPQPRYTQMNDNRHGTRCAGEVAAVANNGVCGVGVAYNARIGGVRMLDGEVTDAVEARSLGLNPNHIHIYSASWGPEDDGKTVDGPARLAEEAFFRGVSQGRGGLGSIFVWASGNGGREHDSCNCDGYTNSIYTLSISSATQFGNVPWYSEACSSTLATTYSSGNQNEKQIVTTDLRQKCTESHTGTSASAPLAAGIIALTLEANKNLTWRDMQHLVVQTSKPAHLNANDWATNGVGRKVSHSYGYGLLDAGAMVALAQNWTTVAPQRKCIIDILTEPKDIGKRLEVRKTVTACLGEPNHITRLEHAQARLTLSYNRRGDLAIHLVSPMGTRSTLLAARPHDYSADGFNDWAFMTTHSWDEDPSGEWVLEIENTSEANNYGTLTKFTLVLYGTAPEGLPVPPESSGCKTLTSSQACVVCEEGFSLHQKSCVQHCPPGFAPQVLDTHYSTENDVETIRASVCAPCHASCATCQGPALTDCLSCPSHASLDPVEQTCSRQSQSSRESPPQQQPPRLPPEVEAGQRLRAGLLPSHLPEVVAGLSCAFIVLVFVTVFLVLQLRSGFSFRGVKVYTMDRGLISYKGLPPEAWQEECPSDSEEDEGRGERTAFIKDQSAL
Protocol: Recombinant human furin was purchased from New England BioLabs (Ipswich, MA). Fluorogenic furin convertase substrate BOC-Arg-Val-Arg-Arg-AMC (AMC=7-Amino-4-methylcoumarin) from Enzo Life Sciences (Farmingdale, NY) and HIV aspartyl protease inhibitors (Sigma) were dissolved in DMSO. Protease inhibitory′ drugs were prepared at a. concentration of 10 mg/mL and stored at room temperature. Furin Inhibitor II chloromethylketone was purchased from EMD Millipore (Darmstadt, Germany).
The assay was performed at pH 7.5 in buffer 50 mM HEPES, 1 mM CaCl2, 1 mM β-mercaptoethanol, 0.2 mg/mL BSA. In a total volume of 100 μL, the final concentration per well of substrate enzyme was 10 μM and 1 U/well respectively. All assays were performed at 37° C. in a 96-well fluorometer (BioTek Synergy H4 Hybrid reader) with an excitation wavelength of 345 nm and an emission wavelength of 420 nm.
Inhibitory small molecules were incubated with enzyme for 1 hour at 37° C. prior to addition of substrate to initiate the reaction. All assays were performed in triplicate. Inhibition constants were calculated based on methods previously described (Lineweaver, H. & Burk, D. The Determination of Enzyme Dissociation Constants. J. Am. Chem. Soc. 56, 658-666 (1934)). […]
The molecular docking studies predicted that PIs bind to the catalytic site of furin as well as to a putative allosteric site on furin (FIGS. 7A and 7B). A fluorescence assay was used to monitor furin activity. Furin has substrate specificity for the multi-basic consensus amino-acid sequence of Arg-X-Lys/Arg-Arg (RXRR) at the cleavage site, where X represents a neutral, polar amino acid. Peptide substrates including the furin cleavage sequence having an attached fluorescent tag were used. A fluorescence tag is quenched when it is attached to the peptide, but when furin cleaves the peptide the fluorophore is released and is able to fluoresce. The inhibitory effect of the PIs in this assay can be characterized through a positive control, in which furin actively cleaves substrate without the presence of an inhibitor.

pSTAT3 in Huh7 cells = assay: STAT3 phosphorylation Western blot after IL-6 induction, Huh7; format: cell-based, human; details: for inhibition of STAT3 phosphorylation (in words): 0-60 μM, IL-6 50 ng/mL
Protocol: For the STAT3 and Smad4 experiments, the cells were seeded at a density of 1.5×10^5 per flask in 5 mL of culture medium and allowed to reach 70% confluency. At time 0, the cells received fresh media and were treated with nelfinavir, ritonavir, darunavir or indinavir, at concentrations ranging from 0 to 60 μM for three hours, and then induced with IL-6 or BMP-9 (Cat, #200-06 and 120-07, PeproTech, Rocky Hill, NJ) 50 ng/mL, for 30 minutes.
(§1) After treatments, cultured cells were washed with ice-cold PBS and lysed by adding ice-cold RIP A buffer containing 50 mM Tris-HCl (pH 8), 150 mM NaCl, 1% Triton X-100, 0.5% sodium deoxycholate, 0.1% SDS, 5 mM EDTA and IX protease/phosphatase cocktail inhibitor (Thermo Fisher Scientific, Waltham, MA), Cells were scraped off the flask and were further disrupted by passing the solution through a 21 gauge needle. The extracts were then transferred to a microfuge tube and centrifuged for 20 min at 12000 rpm. Protein concentration was determined with a Lowry assay and equal amounts of the resulting protein (30 μg) were separated by 8% SDS-PAGE and then transferred to a nitrocellulose membrane (Bio-Rad).
After transfer, the membranes were blocked in Odyssey™ Blocking Buffer (927-40100, LI-COR Biosciences, Lincoln, NE) at room temperature, for 1 hour. Primary antibodies were diluted in blocking solution containing 0.2% Tween and incubated overnight at 4° C. with polyclonal antibody to ferroportin (rabbit, 1:1000 dilution; PAS-2293, Thermo Scientific, Waltham, MA), phospho-STAT3 Tyr705 and STAT3 (1:1000 dilution, (Cat. #9145 and 9139 respectively, Cell Signaling Technology, Beverly, MA). Blots were normalized by probing the membranes with either a p-actin or glucose-6-phosphate dehydrogenase polyclonal antibody (Cat. #3700 and 8866 respectively, Cell Signaling Technology, Beverly, MA). After incubation and washing with PBS-T, the membranes where incubated in the dark, in blocking solution with 0.2% Tween with IRDye 800CW Goat anti-Rabbit IgG and IRDye® 680RD Donkey anti-Mouse IgG (1:10000, LI-COR Biosciences, Lincoln, NE) for 1 hour at room temperature. The proteins were detected and visualized by fluorescence using the Odyssey Classic (LI-COR Biosciences, Lincoln, NE). Densitometry analysis of specific bands was performed with the Image Studio software.
To assess whether PIs abrogate the IL-6 signaling cascade, STATS phosphorylation (pSTAT3) was measured in the hepatocyte cell lines. PIs were incubated with both Huh7 and HepG2 cell lines for 3 hours, before the addition of IL-6 (50 ng/mL) for 30 minutes. Concentrations of PIs ranged from 0-60 μM. Following 30 minutes of IL-6 induction, cells wore immediately lysed, and proteins harvested for Western blot analysis. Untreated hepatocyte control cells are designated as healthy.

[1] = tested on: hepcidin-25 in Huh7 cell media; assay: Hepcidin-25 quantification in Huh7 cell media by mass spectrometry; format: cell-based, human; details: 18 hrs; for production of mature secreted hepcidin: single PI at 15 μM, IL-6 and BMP-9 10 ng/mL each
Protocol: Detection of Hepcidin-25 isoform was completed using an HPLC-MS/MS method with an Eksigent NanoLC HPLC with a Thermo Scientific C-18 reverse-phase column coupled via Thermo Scientific Nanospray ESI soft ionization source to a Thermo Scientific LTQ/Orbitrap XL mass spectrometer (MS). Samples were prepared for MS using an in-house developed enrichment and purification protocol. […]
The mass spectrometer was tuned and calibrated to a pure human recombinant hepcidin-25 solution. […] Peaks with isotopic envelopes corresponding to [M+5H+] and [M+6H+], 651.8 m/z and 543.3 m/z for 2-iodoacetamide, 818.5 m/z and 682.2 m/z for 2-iodo-N-(phenylethyl)-acetamide respectively, were detected in all samples and were not observed in the protocol blank. […] Quantification was completed using in-house developed ion chromatogram extractor software that allowed positive isolation of unfragmented peaks by m/z and chromatographic elution windows for total spectral ion count summation. Samples were intensity normalized to hepcidin-25 detected in healthy culture media for each dataset.
Sample preparation consisted of three phases: 1) ultra-filtration to remove large abundant proteins and media debris; 2) earboxamidomethylation of cysteine residues; and 3) 2-phase extraction of lipid substituents and subsequent concentration by speed-vac. […] Data was recorded at a resolution of 100,000 over the course of a two-hour method. Detected intensities were totaled using in-house developed ion-chromatogram extractor software. […]

[2] = tested on: HAMP gene expression in Huh7 hepatocytes; assay: HAMP gene expression (RT-qPCR), Huh7; format: cell-based, human; details: IL-6/BMP-9 induced Huh7, 18 hrs; ND 15 μM, CMK 25 μM
Protocol: Cells were seeded at a density of 1.5×10^6 per T25 flask in 5 mL culture medium and allowed to reach 50% confluency. At time 0, the cells received fresh media and were then simultaneously treated with either nelfinavir or darunavir alone, or nelfinavir and darunavir at varying concentrations (2.5/2.5 μM, 5/5 μM and 7.5/7.5 μM) and induced with IL-6 and BMP-9 (10 ng/mL each) for 18 hours. […] Control groups not being induced with cytokines, are designated as ‘Healthy’.
RNA was isolated by washing tissue culture in 1×PBS, before applying QIAzol lysis reagent (Cat #79306). RNA was then purified on RNeasy mini kit columns (Cat #74104) from Qiagen. All samples were treated with Qiagen DNase (Cat #79254). Two micrograms of RNA were used for reverse transcription and subsequent SYBR® Green ROX real time PCR for the genes of interest. Reverse transcription kits (Cat #330401) and SYBR Green real-time PCR master mixes (Cat #330523) were from Qiagen (Louisville, KY). […]
Real time quantitative PCR was performed on an Applied Biosciences StepOne plus instrument and analyzed with StepOne software v2.3. The relative amounts of transcripts from each gene were normalized to reference gene GAPDH and calculated as follows: ΔΔCT=the average ΔCT of sample B−the average ΔCT of sample B, and their fold difference=2−^ΔΔCT.

[3] = tested on: prohepcidin in Huh7 cell media; assay: Prohepcidin secretion into Huh7 cell media; format: cell-based, human
Protocol: (§2) Cells were seeded at a density of 1.5×10^6 per T25 flask in 5 mL culture medium and allowed to reach 50% confluency. At time 0, the cells received fresh media and were then simultaneously treated with either nelfinavir or darunavir alone, or nelfinavir and darunavir at varying concentrations (2.5/2.5 μM, 5/5 μM and 7.5/7.5 μM) and induced with IL-6 and BMP-9 (10 ng/mL each) for 18 hours. After 18 hours, 2 mL of media were collected, aliquoted and flash frozen for mass spectrometry (MS) analysis. Control groups not being induced with cytokines, are designated as ‘Healthy’.

[4] = tested on: ferroportin in HepG2 cells; assay: Ferroportin Western blot, HepG2; format: cell-based, human; details: HepG2, IL-6/BMP-9 10 ng/mL each; ND 15 μM, CMK 25 μM
Protocol: as §2
as §1, with “(Bio-Rad). […]” for “(Bio-Rad).”

[5] = tested on: Female Lewis rats (PG-LPS model of ACI); assay: PG-LPS rat model of anemia of chronic inflammation; format: in vivo; details: for serum hepcidin, lower than in PG-LPS rats / serum prohepcidin, higher than in PG-LPS rats: ELISA; for Hb (g/dL) Day 0 / Hb (g/dL) Day 62: nelfinavir with ritonavir by oral gavage
[6] = PG-LPS rats, listed as nelfinavir
[7] = Treated Control (no PG-LPS), n = 4

Compound: CC(C)CN(C[C@@H](O)[C@H](Cc1ccccc1)NC(=O)O[C@H]1CO[C@H]2OCC[C@H]21)S(=O)(=O)c1ccc(N)cc1 [Darunavir, [(1R, 5S, 6R)-2,8-dioxabicyclo[3.3.0]oct-6-yl] N-[(2S, 3R)-4-[(4-aminophenyl)sulfonyl-(2-methylpropyl)amino]-3-hydroxy-1-phenyl-butan-2-yl] carbamate]
- type of inhibition (Lineweaver-Burk) (Recombinant human furin): uncompetitive inhibition
- inhibition of furin activity in the drug screen (Recombinant human furin): three best inhibitors
- fluorescence (furin activity) (Recombinant human furin): decreased fluorescence
- inhibition of STAT3 phosphorylation (in words) (pSTAT3 in Huh7 cells): no signs of pSTAT3 inhibition; also recorded: did not show any statistically significant inhibition; also recorded: Neither darunavir nor indinavir inhibits STAT3 phosphorylation
- production of mature secreted hepcidin [1]: back to basal levels

Compound: CCCCCCCCCC(=O)N[C@@H](CCCN=C(N)N)C(=O)N[C@H](C(=O)N[C@@H](CCCCN)C(=O)N[C@@H](CCCN=C(N)N)C(=O)CCl)C(C)C [Dec-RVKR-CMK] (HELM PEPTIDE1{[CCCCCCCCCC(=O)[*:2]].R.V.K.R.[ClC[*:1]]}$$$$V2.0)
- inhibition of furin activity in the drug screen (Recombinant human furin): full inhibition of furin
- HAMP gene expression [2]: this phenomenon was not observed
- hepcidin-25 in media of cytokine-induced cells ([1]; IL-6/BMP-9 10 ng/mL each, ND 15 μM (7.5 μM each), CMK 25 μM): statistically significant drop in mature hepcidin-25 is not observed
- prohepcidin in media of cytokine-induced cells (in words) ([3]; IL-6/BMP-9 10 ng/mL each, 18 hr, ND 7.5 μM each, CMK 25 μM): significantly raised
- secreted prohepcidin concentration, healthy cell groups ([3]; no cytokine induction): No significant difference
- increase of ferroportin expression compared to IL-6/BMP-9 control [4]: 109%

Compound: CC(C)(C)NC(=O)[C@@H]1CN(Cc2cccnc2)CCN1C[C@@H](O)C[C@@H](Cc1ccccc1)C(=O)N[C@H]1c2ccccc2C[C@H]1O [Indinavir]
- inhibition of STAT3 phosphorylation (in words) (pSTAT3 in Huh7 cells): no signs of pSTAT3 inhibition; also recorded: did not show any statistically significant inhibition; also recorded: Neither darunavir nor indinavir inhibits STAT3 phosphorylation

Compound: Cc1c(O)cccc1C(=O)N[C@@H](CSc1ccccc1)[C@H](O)CN1C[C@H]2CCCC[C@H]2C[C@H]1C(=O)NC(C)(C)C [Nelfinavir]
- type of inhibition (Lineweaver-Burk) (Recombinant human furin): competitive inhibition
- inhibition of furin activity in the drug screen (Recombinant human furin): three best inhibitors
- fluorescence (furin activity) (Recombinant human furin): decreased fluorescence
- HAMP gene expression [2]: significant inhibitory effect
- iron in bone marrow, PG-LPS rats ([5]; ICP-MS): increased significantly
- iron in serum, PG-LPS rats ([5]; ICP-MS): increased significantly
- liver iron content, PG-LPS rats ([5]; PG-LPS PI treated group): dropped
- more serum iron than PG-LPS treated rats ([5]; PG-LPS rats): ~25%
- recovery of hemoglobin and hematocrit ([5]; PG-LPS rats): did not demonstrate a recovery
- serum hepcidin, lower than in PG-LPS rats ([5]; PG-LPS rats): ~2 fold
- serum prohepcidin, higher than in PG-LPS rats ([5]; PG-LPS rats): ~2.5 fold
- serum hepcidin, lower than in PG-LPS rats [5, 6]: approximately 2 fold
- serum prohepcidin, higher than in PG-LPS rats [5, 6]: approximately 2.5 fold
- recovery of hemoglobin and hematocrit [5, 6]: did not significantly recover
- increase of prohepcidin ([5]; PG-LPS rats, ritonavir co-administered): 148%
- inhibition of mature hepcidin production ([5]; PG-LPS rats, therapeutic serum concentration 4 ng/mL, ritonavir co-administered): 47%
- transcription of HAMP mRNA in liver ([5]; PG-LPS treated animals, qPCR): did not show any statistically significant changes
- Hb (g/dL) Day 0 [5, 7]: 14.4 ± 0.4 g/dL
- Hb (g/dL) Day 62 [5, 7]: 15.2 ± 0.2 g/dL
- HCT (%) Day 0 ([5]; Treated Control, n = 4): 41.5 ± 0.9%
- HCT (%) Day 62 ([5]; Treated Control, n = 4): 44.6 ± 2.7%
- MCV (fl) Day 0 ([5]; Treated Control, n = 4): 55.3 ± 0.7 fL
- MCV (fl) Day 62 ([5]; Treated Control, n = 4): 49.7 ± 0.5 fL
- RDW (%) Day 0 ([5]; Treated Control, n = 4): 12.6 ± 0.1%
- RDW (%) Day 62 ([5]; Treated Control, n = 4): 37.2 ± 0.7%
- HCT (%) Day 0 ([5]; Treated PG-LPS, n = 7): 41.5 ± 2.4%
- HCT (%) Day 62 ([5]; Treated PG-LPS, n = 7): 37.6 ± 3.9%
- MCV (fl) Day 0 ([5]; Treated PG-LPS, n = 7): 55.8 ± 1.5 fL
- MCV (fl) Day 62 ([5]; Treated PG-LPS, n = 7): 46.7 ± 0.6 fL
- RDW (%) Day 0 ([5]; Treated PG-LPS, n = 7): 13.6 ± 2.5%
- RDW (%) Day 62 ([5]; Treated PG-LPS, n = 7): 42.8 ± 1.2%
- Hb (g/dL) Day 0 ([5]; Treated PG-LPS, n = 7): 14.1 ± 1.1 g/dL
- Hb (g/dL) Day 62 ([5]; Treated PG-LPS, n = 7): 13.0 ± 1.1 g/dL
- liver ferroportin, PG-LPS rats (in words) ([5]; Western blot): significantly higher
- increase in liver ferroportin, healthy rats ([5]; healthy treated rats): ~3 fold
- hepcidin levels, healthy rats ([5]; healthy treated vs healthy): slightly higher
- liver iron content, healthy rats ([5]; healthy treated vs healthy): dropped significantly
- prohepcidin levels, healthy rats ([5]; healthy treated vs healthy): much higher
- serum iron, healthy rats ([5]; healthy treated vs healthy): not significantly different
- increase of ferroportin expression in animal liver ([5]; ritonavir co-administered): 2.5 fold
- inhibition of STAT3 phosphorylation (in words) (pSTAT3 in Huh7 cells): inhibiting STAT3 phosphorylation in a dose dependent manner; also recorded: concentration dependent manner; also recorded: dose dependent inhibition
- inhibition at 5 µM (pSTAT3 in Huh7 cells; Homo sapiens, Huh-7, 5 μM, 3 hrs before IL-6 50 ng/mL 30 min): 27%
- inhibition at 15 µM (pSTAT3 in Huh7 cells; Homo sapiens, Huh-7, 15 μM, 3 hrs before IL-6 50 ng/mL 30 min): 46%
- production of mature secreted hepcidin [1]: back to basal levels

Compound: CC(C)c1nc(CN(C)C(=O)N[C@H](C(=O)N[C@@H](Cc2ccccc2)C[C@H](O)[C@H](Cc2ccccc2)NC(=O)OCc2cncs2)C(C)C)cs1 [Ritonavir]
- inhibition of STAT3 phosphorylation (in words) (pSTAT3 in Huh7 cells): not concentration dependent
- inhibition of STAT3 phosphorylation (in words) (pSTAT3 in Huh7 cells; listed as ritonavir): dose dependent inhibition
- inhibition of STAT3 phosphorylation (pSTAT3 in Huh7 cells; all concentrations tested): ~25%
- average pSTAT3 inhibition (pSTAT3 in Huh7 cells; doses 5-30 μM): 27%

Reference: patent US12208107B2, “Method and compositions for the treatment of anemia through the inhibition of furin” (Brigham Young University, priority 2016, dated 2025)
